In patent publication US11439659B2, “Methods and compositions to prevent and treat inflammation and allergic reactions” (priority 2018, dated 2022):

Key:
DSS colitis = assay: Mouse model of DSS colitis; type: in vivo
Method: Mouse model of DSS colitis. WT or Ella/hyal1 mice provided 3% DSS in their drinking water for 7 days and body weight measured every day. For HA digestion by PEGPH20, Mice were intravenously injected PEGPH20 (10 mg/kg) every 3 days 24 hour prior to start DSS water feeding. For Adipogenesis inhibition by PPARg inhibitor, Mice were intraperitonealy injected 120 mg/kg every single day 48 hour prior to start DSS water feeding. Mice were sacrificed after 5 and 7 days. Distal colon, mesenteric fat and blood were collected for RNA, Bacterial culture assay and toxin analysis.
(§1) Reverse transcription-quantitative PCR (RTqPCR) analyses. RTqPCR was used to determine the mRNA abundance. Total cellular RNA was extracted using the PureLink RNA Mini Kit(Life Technologies Corporation, Grand Island, N.Y.) and mRNA were purified by using Dynabeads mRNA Purification Kit(Life technologies). 100 ng of mRNA was reverse transcribed to cDNA using iScript cDNA synthesis kit (BIO-RAD LABORATORIES, INC, Hercules, Calif.). Quantitative, real-time PCR was performed on the CFX96 real time system (Biorad) using predeveloped Taqman gene expression assay (Applied Biosystems). The expression of βActin gene was used as a house keeping gene to normalize data.
(§2) Histology and immunohistochemistry (IHC). Tissue biopsies were directly embedded in OCT compound or paraffin. Paraffin embedded tissues are used for Hematoxylin/Eosin (H&E) staining, and frozen sections were fixed in 4% PFA for 20 mins or 100% Aceton prior to immunofluorescence staining. For IHC, fixed and permeabilized tissue sections were blocked with Image-iT FX reagent (invitrogen) before incubating with primary antibodies followed by appropriate 488- or 568-coupled secondary antibodies. Nuclei were counterstained with DAPI. All images were taken with an Olympus BX41 microscope (widefield) or Zeiss LSM510 confocal microscope as indicated.
Flow cytometry analyses. Colon collected from control or DSS-treated mice was cut into small pieces then digested with 2.5 mg/mL Collagenase D and 30 ng/mL DNAse1 for 2 hours at 37° C. then filtered through a 30 μm filter to generate single cell suspension for FACS analyses. Cells were then stained with zombie violet viability dye (BioLegend, 423114), blocked with anti-mouse CD16/32 (eBioscience, 14016185), followed by staining with antibody cocktails for preadipocytes or immune cells. The antibody cocktail for preadipocytes includes AF488-SMA (eBioscience, 53976082), PECy7-CD45 (BioLegend, 147704), PerCy5.5-CD31 (BioLegend, 102522), PE-Thyl (BioLegend, 105308), APC-PDGFRa (eBioscience, 17140181), BV605-SCA1 (BioLegend, 108133) and AF700-CD24 (BioLegend, 108136). The antibody cocktail for immune cells includes PECy7-CD11b (BioLegend, 101216), FITC-Ly6G (eBioscience, 11593182), PE-F4/80 (eBioscience,12480182), APC-CD11C (BioLegend, 117310), AF700-MHCII (eBioscience, 56532182) and APC-Cy7-CD3 (BioLegend, 100222). FACS analyses for surface expression of preadipocyte or immune cell markers were performed by the BD FACSCanto RUO machine and analyzed by FlowJo V10 software. Dead cells stained positive with zombie violet dye were excluded from the analyses.
Serum Endotoxin analyses. Mouse serum was separated from mouse whole blood using serum separator tubes (Becton, Dickinson and Company). Mouse serum Endotoxin levels were quantified by ToxinSensor Chromogenic LAL Endotoxin Assay Kit (GenScript).
Hyaluronan (HA) analysis. Glucosaminoglycan (GAG) including HA were extracted from 3T3L1 supernatant and Murine skin and colon. Samples were homogenized and treated overnight with protease (0.16 mg/ml; Sigma-Aldrich) to degrade protein, followed by purification by anion exchange chromatography using DEAE sephacel (Amersham Biosciences). Columns were washed with a low-salt buffer (0.15 M NaCl in 20 mM sodium acetate; pH 6.0) and eluted with 1 M NaCl. Glycans were desalted by PD10 (GE Healthcare). HA concentration were measured ELISA Duo Set (R&D Systems). […]

[1] = mouse, in vivo
[2] = system: S. aureus strain USA300/MRSA skin infection; assay: Mouse model of S. aureus skin infection; type: in vivo
Method: Mouse model of S. aureus skin infection. Staphylococcus aureus strain USA300/MRSA was used for infection. Briefly, the backs of sex-matched and age-matched adult wildtype or Ella/Hyal1 mice were shaved and hair removed by chemical depilation (Nair) then injected subcutaneously with 100 μl of a mid-logarithmic growth phase of S. aureus (2×10^6 CFU of bacteria) in PBS. Mice were sacrificed after day 3 and 8 mm skin punch biopsy comprising the center of the injection site was harvested. Infected skin surrounding the infection center (6˜8 mm) avoid of center abscess was carefully dissected out for RNA extraction or CFU determination. Skin biopsies were homogenized in 1 ml Trizol (for RNA) or PBS (for CFU counting) with 2 mm zirconia beads in a mini-bead beater 16 (Biospect, Bartlesville, Okla.). To count CFU, homogenized skin samples were serially diluted, plated onto Tryptic Soy Agar, and enumerated after 18 hours to quantify the CFU per gram of tissue. For some experiments, PEGPH20(10 mg/kg) was injected intravenously starting from 1 day prior to infection, and vehicle (10 mmol/L histidine, 130 mmol/L NaCl at pH 6.5) was used as control.
as §1, §2

[3] = system: mouse preadipocytes (3T3L1); assay: In vitro adipocyte differentiation of 3T3L1 preadipocytes; type: cell-based
Method: Preadipocyte culture. The preadipocyte cell line 3T3-L1 was purchased from ATCC (CL-173) lot 59239597. 3T3-L1 cells were grown in preadipocyte proliferation medium stock (Cell applications, San Diego, Calif.), and P4˜P7 cells were used for in vitro differentiation. To induce differentiation, two days post-confluent 3T3-L1 cells were switched to adipocyte differentiation medium containing insulin, dexamethasone, and IBMX. (Cell applications, San Diego, Calif.), and medium was changed to fresh medium at day 2 and 4. To generate differentiated adipocytes for comparison studies between 3T3-L1 preadipocytes and adipocytes, 3T3-L1 cells were differentiated for 3 days followed by two days culture in Preadipocyte growth media. (Cell applications, San Diego, Calif.) before RNA or protein extraction.
as §1
Hyaluronan (HA) analysis. Glucosaminoglycan (GAG) including HA were extracted from 3T3L1 supernatant and Murine skin and colon. Samples were homogenized and treated overnight with protease (0.16 mg/ml; Sigma-Aldrich) to degrade protein, followed by purification by anion exchange chromatography using DEAE sephacel (Amersham Biosciences). Columns were washed with a low-salt buffer (0.15 M NaCl in 20 mM sodium acetate; pH 6.0) and eluted with 1 M NaCl. Glycans were desalted by PD10 (GE Healthcare). HA concentration were measured ELISA Duo Set (R&D Systems). The size distribution of HA was analyzed by agarose gel electrophoresis 41. The HA sample was mixed with TAE buffer containing 2 M sucrose and electrophoresed at 2 V/cm for 10 hours at room temperature. The gel was stained overnight under light-protective cover at room temperature in a solution containing 0.005% Stains-All in 50% ethanol, and destained in water. Hyalose ladders (Hyalose) were used for standards.

[4] = BADGE compared with hyaluronidase
[5] = 3T3L1 differentiation, 20 ug/ml PEGPH20

Row | Compound | magnitude of inhibition of inflammation of the colon (DSS colitis; [4]) | preventing DSS induced colon injury (colon length, histology, microbial translocation) (DSS colitis; [4]) | expression of TNFα in colon (DSS colitis; DSS colitis, BADGE 120 mg/kg intraperitoneally every day from 48 hour prior to DSS) | Pref-1 expression in the colon (DSS colitis; PPARg inhibitor) | decrease in body weight (DSS colitis; 3% DSS, by day 5) | expression of tumor necrosis factor alpha (TNFα) in colon (DSS colitis; DSS colitis, hyaluronidase delivery, vs control colitis group) | gross inflammatory response of the colon to DSS (DSS colitis; mouse, in vivo) | effect on health or behavior of mice [1] | lesion size ([2]; S. aureus skin infection) | expression of Camp ([2]; infected skin) | expression of IL-6 ([2]; infected skin) | gross inflammatory response of the skin to infection ([2]; mouse, in vivo) | lipid droplets within cells (Bodipy) ([3]; 3T3L1, day 2 of differentiation, 20 ug/ml PEGPH20) | expression of Zfp521 mRNA [3, 5] | expression of adiponectin (Adipoq) mRNA [3, 5] | expression of antimicrobial peptide cathelicidin (Camp) [3, 5] | expression of zfp423 mRNA ([3]; adipocyte differentiation with added hyaluronidase) | adipogenesis / adipocyte differentiation in vitro ([3]; cultured preadipocytes)
1 | CC(C)(c1ccc(OCC2CO2)cc1)c1ccc(OCC2CO2)cc1 (stereo not drawn) [BADGE, Bisphenol A diglycidyl ether] | less | lesser effect than hyaluronidase | inhibited expression | inhibited | – | – | – | – | – | – | – | – | – | – | – | – | – | –
2 | hyaluronidase | – | – | – | – | lesser decrease in body weight | decreased expression | significant decrease | No effect | decreased lesion size | decreased | decreased expression | significant decrease | decreased lipid droplets | decreased mRNA | decreased mRNA | decreased | decreased mRNA | inhibited adipocyte differentiation
